Laboratory results taken from patent US20240408169A1 (priority 2023, published 2024).
Where two headings read alike, the source gives them in different places. *1 amine or outer side, *2 acyl side, *3 side chain or, on linkers, in order; H or OH if unused. Where a SMILES comes first, the peptide text is derived from it. Bridges are numbered along the chain shown (N, C = ends). [ ]: non-standard residue; d: D form. The star is where a group is joined. X98 = CN1CC2(C1)OCc1cc(-c3ccc(Cl)cc3C[C@@H](C(=O)[*:2])N(C)[*:1])ccc12; X90 = CC(=O)N1CC=C(c2ccc(Cl)cc2C[C@@H](C(=O)[*:2])N(C)[*:1])CC1; X216 = CN1CCC(c2ccc(Cl)cc2C[C@@H](C(=O)[*:2])N(C)[*:1])=CC1=O; NMehhhLys(Me) = CN([C@@H](CCCCCCCN(C)[*:3])C(=O)[*:2])[*:1]; X215 = Cc1noc(C)c1-c1ccc(Cl)cc1C[C@@H](C(=O)[*:2])N(C)[*:1]; X66 = CN([C@@H](Cc1cc(Cl)ccc1-c1cccnc1)C(=O)[*:2])[*:1]; NMe(hhhLys) = CN([C@@H](CCCCCCCN[*:3])C(=O)[*:2])[*:1]; NMe3Pal(2-OMe,5-Cl) = CN[C@@H](Cc1cc(Cl)cnc1OC)C(=O)O; X213 = CN([C@@H](Cc1cc(Cl)cc2c1cnn2C)C(=O)[*:2])[*:1]; X214 = CC(C)Cc1ccc(Cl)cc1C[C@@H](C(=O)[*:2])N(C)[*:1]; cBuCO(3,3-F2-1-CF3) = O=C(C1(C(F)(F)F)CC(F)(F)C1)*; NMePhe(2,5-Cl2) = CN[C@@H](Cc1cc(Cl)ccc1Cl)C(=O)O; Pro(trans-4-F) = O=C(O)[C@@H]1C[C@@H](F)CN1; Gly(cPr) = N[C@H](C(=O)O)C1CC1

How the values were obtained:
CyclinA2/CDK2 = molecular target: T1, CyclinA2/CDK2 (Homo sapiens, UniProt P20248); experiment: Fluorescence Polarization (FP) competitive binding assay, Cyclin A2/Cdk2;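 also: plates equilibrated two hours at room temperature before polarization reading, IC50 fitted from eight-concentration compound titration curves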
T1 construct: purchased CRELUX Protein Services

CyclinB1/CDK1 = molecular target: T2, CyclinB1/CDK1 (Homo sapiens, UniProt P14635); experiment: Fluorescence Polarization (FP) competitive binding assay, Cyclin B1/Cdk1;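 also: fluorescence polarization read after equilibration at room temperature, with IC50 taken from serially diluted dose-response curves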
T2 construct: purchased Eurofins, discovery 14-450

CyclinE1/CDK2 = molecular target: T3, CyclinE1/CDK2 (Homo sapiens, UniProt P24864); experiment: Fluorescence Polarization (FP) competitive binding assay, Cyclin E1/Cdk2;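 also: readings taken after two-hour equilibration at room temperature in HEPES buffer with NaCl, DTT, NP-40 and BSA, IC50 fitted from eight-concentration serial dilution series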
T3 construct: purchased Eurofins, discovery 14-475

NCI-H1048 cells = experiment: MTT proliferation assay, NCI-H1048; type: cell-based; conditions: 5 days compound exposure, 1:3 serial dilution starting at 10 μM;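 also: Dose-response in 96-well plates over 8 or 10 concentration points, with exposure spanning 3-4 cell doublings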
OVCAR3 cells = experiment: MTT proliferation assay, OVCAR3; type: cell-based; conditions: 5 days compound exposure, 1:3 serial dilution starting at 10 μM;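 also: compound given as an 8- or 10-point series, one day after plating, with exposure covering roughly 3-4 cell doublings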
[1] = 8 nM Cyclin A2/Cdk2, 2 nM FAM probe, average of 2-3 independent experiments, read-out: Cyclin A FP IC50
[2] = 10 nM Cyclin B1/Cdk1, 2 nM FAM probe; average of 2-3 independent experiments; read-out: Cyclin B FP IC50
[3] = 10 nM Cyclin E1/Cdk2, 2 nM FAM probe, average of 2-3 independent experiments, read-out: Cyclin E FP IC50
[4] = read-out: Cyclin B FP IC50; 10 nM Cyclin B1/Cdk1, 2 nM FAM probe; average of 2-3 independent experiments

Structure (SMILES) | IC50 (CyclinA2/CDK2; [1]) [nM] | IC50 (CyclinB1/CDK1; [2]) [nM] | IC50 (CyclinE1/CDK2; [3]) [nM] | GI50 (NCI-H1048 cells) [nM] | GI50 (OVCAR3 cells) [nM] | IC50 (CyclinA2/CDK2) [nM] | IC50 (CyclinB1/CDK1; [4]) [nM] | IC50 (CyclinE1/CDK2) [nM] | IC50 (CyclinE1/CDK2; Cyclin E FP IC50, 10 nM Cyclin E1/Cdk2, 2 nM FAM probe, average of 2-3 independent experiments) [nM]
CC(C)C[C@@H]1NC(=O)[C@@H](N(C)C(=O)[C@@H](NC(=O)[C@@H]2C[C@@H](F)CN2C(=O)C2(C(F)(F)F)CC2)C2CC2)CC=CCCCCNC(=O)[C@H](Cc2cc(Cl)ccc2Cl)N(C)C1=O (single isomer, unassigned) [Example 5-P1] | 790 | 20 | 700 | 390 | 690 |  |  |  | 
CC(C)C[C@@H]1NC(=O)[C@@H](N(C)C(=O)[C@@H](NC(=O)[C@@H]2C[C@@H](F)CN2C(=O)C2(C(F)(F)F)CC2)C2CC2)CC=CCCCCNC(=O)[C@H](Cc2cc(Cl)ccc2Cl)N(C)C1=O (single isomer, unassigned) [Example 5-P2] | 560 | 20 | 460 | 290 | 560 |  |  |  | 
CC(C)C[C@@H]1NC(=O)[C@@H](N(C)C(=O)[C@@H](NC(=O)[C@@H]2C[C@@H](F)CN2C(=O)C2(C(F)(F)F)CC3(CCC3)C2)C2CC2)CC=CCCCCNC(=O)[C@H](Cc2cc(Cl)ccc2Cl)N(C)C1=O (single isomer, unassigned) [Example 16-P1] |  | 20 | 3150 | 340 | 880 |  |  |  | 
CC(C)C[C@@H]1NC(=O)[C@@H](N(C)C(=O)[C@@H](NC(=O)[C@@H]2C[C@@H](F)CN2C(=O)C2(C(F)(F)F)CC3(CCC3)C2)C2CC2)CC=CCCCCNC(=O)[C@H](Cc2cc(Cl)ccc2Cl)N(C)C1=O (single isomer, unassigned) [Example 16-P2] |  | 20 | 2710 | 350 | 990 |  |  |  | 
CC(=O)N1C2CCC1CC(c1ccc(F)cc1C[C@H]1C(=O)N(C)CCCCCCC[C@H](N(C)C(=O)[C@@H](NC(=O)[C@@H]3C[C@@H](F)CN3C(=O)C3(C(F)(F)F)CC(F)(F)C3)C3CC3)C(=O)N[C@@H](CC(C)C)C(=O)N1C)C2 (single isomer, unassigned) [Example 59-P1] | 120 | 20 | 850 | 20 | 20 |  |  |  | 
CC(=O)N1C2CCC1CC(c1ccc(F)cc1C[C@H]1C(=O)N(C)CCCCCCC[C@H](N(C)C(=O)[C@@H](NC(=O)[C@@H]3C[C@@H](F)CN3C(=O)C3(C(F)(F)F)CC(F)(F)C3)C3CC3)C(=O)N[C@@H](CC(C)C)C(=O)N1C)C2 (single isomer, unassigned) [Example 59-P2] | 180 | 20 | 870 | 60 | 50 |  |  |  | 
CC(C)C[C@@H]1NC(=O)[C@@H](N(C)C(=O)[C@@H](NC(=O)[C@@H]2C[C@@H](F)CN2C(=O)C2(C(F)(F)F)CC(F)(F)C2)C2CC2)CC=CCCCCNC(=O)[C@H](Cc2cc(Cl)cnc2OC2CC2)N(C)C1=O (single isomer, unassigned) [Example 102-P1] | 310 | 20 | 1110 | 350 | 810 |  |  |  | 
CC(C)C[C@@H]1NC(=O)[C@@H](N(C)C(=O)[C@@H](NC(=O)[C@@H]2C[C@@H](F)CN2C(=O)C2(C(F)(F)F)CC(F)(F)C2)C2CC2)CC=CCCCCNC(=O)[C@H](Cc2cc(Cl)cnc2OC2CC2)N(C)C1=O (single isomer, unassigned) [Example 102-P2] | 120 | 20 | 310 | 80 | 130 |  |  |  | 
CC(C)C[C@@H]1NC(=O)[C@@H](N(C)C(=O)[C@@H](NC(=O)[C@@H]2C[C@@H](F)CN2C(=O)C2(C(F)(F)F)CC(F)(F)C2)C2CC2)CCCCCCCNC(=O)[C@H](Cc2cc(Cl)ccc2Cl)N(C)C1=O [Example 7] ({cBuCO(3,3-F2-1-CF3)}-[Pro(trans-4-F)][Gly(cPr)][NMe(hhhLys)]L[NMePhe(2,5-Cl2)]; lactam 3-C) |  | 20 | 290 | 20 | 50 |  |  |  | 
CC(C)C[C@@H]1NC(=O)[C@@H](N(C)C(=O)[C@@H](NC(=O)[C@@H]2C[C@@H](F)CN2C(=O)C2(C(F)(F)F)CC(F)(F)C2)C2CC2)CC=CCCCCN(C)C(=O)[C@H](Cc2cc(Cl)ccc2Cl)N(C)C1=O [Example 14] |  | 20 | 340 | 100 | 200 |  |  |  | 
CC(C)C[C@@H]1NC(=O)[C@@H](N(C)C(=O)[C@@H](NC(=O)[C@@H]2C[C@@H](F)CN2C(=O)C2(C(F)(F)F)CC(F)(F)C2)C2CC2)CC=CCCCCNC(=O)[C@H](Cc2cc(Cl)ccc2-c2cccc(Cl)c2)N(C)C1=O [Example 19] | 430 | 20 |  | 550 | 1760 |  |  |  | 
CC(C)C[C@@H]1NC(=O)[C@@H](N(C)C(=O)[C@@H](NC(=O)[C@@H]2C[C@@H](F)CN2C(=O)C2(C(F)(F)F)CC(F)(F)C2)C2CC2)CC=CCCCCNC(=O)[C@H](Cc2cc(Cl)ccc2C2=CCC(F)(F)CC2)N(C)C1=O [Example 22] | 210 | 20 |  | 1100 | 1800 |  |  |  | 
CC(=O)N1CC=C(c2ccc(Cl)cc2C[C@H]2C(=O)N(C)CCCCCCC[C@H](N(C)C(=O)[C@@H](NC(=O)[C@@H]3C[C@@H](F)CN3C(=O)C3(C(F)(F)F)CC(F)(F)C3)C3CC3)C(=O)N[C@@H](CC(C)C)C(=O)N2C)CC1 [Example 50, (2S,4R)—N—((S)-2-(((3S,6S,9S)-3-(2-(1-acetyl-1,2,3,6-tetrahydropyridin-4-yl)-5-chlorobenzyl)-6-isobutyl-1,4-dimethyl-2,5,8-trioxo-1,4,7-triazacyclohexadecan-9-yl)(methyl)amino)-1-cyclopropyl-2-oxoethyl)-1-(3,3-difluoro-1-(trifluoromethyl)cyclobutane-1-carbonyl)-4-fluoropyrrolidine-2-carboxamide] ({cBuCO(3,3-F2-1-CF3)}-[Pro(trans-4-F)][Gly(cPr)][NMehhhLys(Me)]L[X90]; lactam 3-C) |  | 20 | 1220 | 10 | 10 |  |  |  | 
CC(C)Cc1ccc(Cl)cc1C[C@H]1C(=O)NCCCCCCC[C@H](N(C)C(=O)[C@@H](NC(=O)[C@@H]2C[C@@H](F)CN2C(=O)C2(C(F)(F)F)CC(F)(F)C2)C2CC2)C(=O)N[C@@H](CC(C)C)C(=O)N1C [Example 64] ({cBuCO(3,3-F2-1-CF3)}-[Pro(trans-4-F)][Gly(cPr)][NMe(hhhLys)]L[X214]; lactam 3-C) | 380 | 20 |  | 510 | 1240 |  |  |  | 
CC(C)C[C@@H]1NC(=O)[C@@H](N(C)C(=O)[C@@H](NC(=O)[C@@H]2C[C@@H](F)CN2C(=O)C2(C(F)(F)F)CC(F)(F)C2)C2CC2)CCCCCCCN(C)C(=O)[C@H](Cc2cc(Cl)ccc2-c2cccnc2)N(C)C1=O [Example 196] ({cBuCO(3,3-F2-1-CF3)}-[Pro(trans-4-F)][Gly(cPr)][NMehhhLys(Me)]L[X66]; lactam 3-C) |  | 20 | 740 | 10 | 10 |  |  |  | 
Cc1noc(C)c1-c1ccc(Cl)cc1C[C@H]1C(=O)N(C)CCCCCCC[C@H](N(C)C(=O)[C@@H](NC(=O)[C@@H]2C[C@@H](F)CN2C(=O)C2(C(F)(F)F)CC(F)(F)C2)C2CC2)C(=O)N[C@@H](CC(C)C)C(=O)N1C [Example 210] ({cBuCO(3,3-F2-1-CF3)}-[Pro(trans-4-F)][Gly(cPr)][NMehhhLys(Me)]L[X215]; lactam 3-C) |  |  |  | 100 | 110 | 420 | 20 |  | 
COc1ncc(Cl)cc1C[C@H]1C(=O)N(C)CCCCCCC[C@H](N(C)C(=O)[C@@H](NC(=O)[C@@H]2C[C@@H](F)CN2C(=O)C2(C(F)(F)F)CC(F)(F)C2)C2CC2)C(=O)N[C@@H](CC(C)C)C(=O)N1C [Example 222] ({cBuCO(3,3-F2-1-CF3)}-[Pro(trans-4-F)][Gly(cPr)][NMehhhLys(Me)]L[NMe3Pal(2-OMe,5-Cl)]; lactam 3-C) |  |  |  | 10 | 10 |  | 20 | 230 | 
CC(C)C[C@@H]1NC(=O)[C@@H](N(C)C(=O)[C@@H](NC(=O)[C@@H]2C[C@@H](F)CN2C(=O)C2(C(F)(F)F)CC(F)(F)C2)C2CC2)CCCCCCCN(C)C(=O)[C@H](Cc2cc(Cl)ccc2C2=CC(=O)N(C)CC2)N(C)C1=O [Example 237] ({cBuCO(3,3-F2-1-CF3)}-[Pro(trans-4-F)][Gly(cPr)][NMehhhLys(Me)]L[X216]; lactam 3-C) |  |  |  | 10 | 40 |  | 20 |  | 1140
CC(C)C[C@@H]1NC(=O)[C@@H](N(C)C(=O)[C@@H](NC(=O)[C@@H]2C[C@@H](F)CN2C(=O)C2(C(F)(F)F)CC(F)(F)C2)C2CC2)CCCCCCCNC(=O)[C@H](Cc2cc(Cl)ccc2-c2ccc3c(c2)COC32CN(C)C2)N(C)C1=O [Example 395] ({cBuCO(3,3-F2-1-CF3)}-[Pro(trans-4-F)][Gly(cPr)][NMe(hhhLys)]L[X98]; lactam 3-C) |  |  |  | 20 | 10 |  |  |  | 
CC(C)C[C@@H]1NC(=O)[C@@H](N(C)C(=O)[C@@H](NC(=O)[C@@H]2C[C@@H](F)CN2C(=O)C2(C(F)(F)F)CC(F)(F)C2)C2CC2)CCCCCCCN(C)C(=O)[C@H](Cc2cc(Cl)cc3c2cnn3C)N(C)C1=O [Example 424] ({cBuCO(3,3-F2-1-CF3)}-[Pro(trans-4-F)][Gly(cPr)][NMehhhLys(Me)]L[X213]; lactam 3-C) |  | 45.5 | 3820 | 2510 | 1780 |  |  |  | 
